Laboratory results from US20260258035A1, “FIVE-MEMBERED AND SIX-MEMBERED NITROGEN-CONTAINING COMPOUND, AND INTERMEDIATE, PREPARATION METHOD AND USE THEREOF” (HANGZHOU SYNRX THERAPEUTICS BIOMEDICAL TECHNOLOGY CO., LTD., priority 2022, published 2026).
Read-outs that look alike come from different tables or passages of the source.

Legend:
PARG = PARG (Homo sapiens, UniProt Q86W56); assay: Biochemical assay (PARG, TFMU-ADPr substrate)
[1] = system: Human breast squamous carcinoma cells HCC1806; assay: Cell function assay (In-Cell Western, PAR/pADPr after MMS); assay type: cell-based; conditions: read-out: IC50 (nM) in cell function assay
Protocol: 2. Cell Function Assay (In-Cell Western)
• 1) Human breast squamous carcinoma cells HCC1806 (ATCC) were seeded to the 384-well plate (Corning, #3764) at 20,000 cells/well, incubated for 24 h in a CO2 (5%) incubator at 37° C. to allow for complete adherence of the cells; • 2) 120 nL compounds or DMSO were added to the 384-well plate by Echo 550 (LABCYTE, #550) (final concentrations of compounds: 30000 nM, 10000 nM, 3000 nM, 1000 nM, 300 nM, 100 nM, 30 nM, 10 nM, 3 nM, 1 nM, 0 nM), and then the cells were incubated for 1 h in a CO2 (5%) incubator at 37° C.; • 3) 40 nL MMS (methyl mesylate, Sigma, #129925)(final concentration: 0.5 mM) was added to the plate by Echo 550, and the cells were treated for 1 h in a CO2 (5%) incubator at 37° C.

HCC1806 = assay: Cell viability assay (CellTiter-Glo); assay type: cell-based, Human; conditions: HCC1806, 7 days, CellTiter-Glo, read-out: IC50 (nM) in cell viability assay
[2] = 4 nM PARG, 66.2 uM TFMU-ADPr, 3 min at room temperature
[3] = HCC1806, In-Cell Western, MMS treatment
[4] = HCC1806, compound 1 h then 0.5 mM MMS 1 h, PAR/pADPr antibody, In-Cell Western

Chain of PARG (Q86W56 whole entry): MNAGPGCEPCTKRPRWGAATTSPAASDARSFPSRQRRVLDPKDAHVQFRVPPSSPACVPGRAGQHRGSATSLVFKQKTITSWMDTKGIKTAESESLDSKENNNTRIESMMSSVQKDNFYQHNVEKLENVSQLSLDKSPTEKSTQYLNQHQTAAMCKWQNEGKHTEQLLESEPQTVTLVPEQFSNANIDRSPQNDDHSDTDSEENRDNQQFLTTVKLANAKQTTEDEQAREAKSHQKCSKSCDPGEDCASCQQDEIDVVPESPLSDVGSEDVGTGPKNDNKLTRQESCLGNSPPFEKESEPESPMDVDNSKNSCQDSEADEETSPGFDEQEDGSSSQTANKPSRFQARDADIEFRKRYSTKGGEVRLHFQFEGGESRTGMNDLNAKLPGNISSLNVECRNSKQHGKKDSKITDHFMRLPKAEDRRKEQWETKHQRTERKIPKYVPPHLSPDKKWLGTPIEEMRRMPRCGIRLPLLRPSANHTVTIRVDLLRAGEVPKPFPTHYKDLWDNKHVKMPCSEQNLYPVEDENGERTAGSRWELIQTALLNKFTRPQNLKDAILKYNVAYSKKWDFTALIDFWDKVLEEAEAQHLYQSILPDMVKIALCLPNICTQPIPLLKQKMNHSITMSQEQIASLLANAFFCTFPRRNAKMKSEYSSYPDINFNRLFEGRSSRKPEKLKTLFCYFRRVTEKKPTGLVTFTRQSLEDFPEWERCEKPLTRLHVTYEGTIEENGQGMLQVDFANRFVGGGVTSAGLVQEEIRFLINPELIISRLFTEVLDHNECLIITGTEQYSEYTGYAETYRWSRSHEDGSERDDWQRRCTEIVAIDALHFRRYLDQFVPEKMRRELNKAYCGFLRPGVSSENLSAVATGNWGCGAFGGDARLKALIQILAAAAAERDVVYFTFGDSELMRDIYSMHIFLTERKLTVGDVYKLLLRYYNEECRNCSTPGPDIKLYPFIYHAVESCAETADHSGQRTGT

Row | IC50 (PARG; [2]) [nM] | IC50 (PARG; PARG, TFMU-ADPr substrate) [nM] | IC50 [1, 3] [nM] | IC50 [1, 4] [nM] | IC50 (HCC1806) [nM] | IC50 (HCC1806; Homo sapiens, HCC1806, 168 h) [nM] | Structure (SMILES)
1 | < 100 | 0.96 | 9.32 | < 100 | 283 | < 500 | CC(C)C(=O)N1CCN(c2cc(S(=O)(=O)NC3(C)COC3)cn3c(-c4nnc(C(F)F)s4)ncc23)CC1 [Example 43, 3-(5-(difluoromethyl)-1,3,4-thiadiazol-2-yl)-8-(4-isobutyrylpiperazin-1-yl)-N-(3-methyloxetan-3-yl)imidazo[1,5-a]pyridine-6-sulfonamide]
2 | < 100 | 3.66 | 53.2 | 100 to 500 | 738 | 500 to 5000 | CC(C)C(=O)N1CCN(c2c(F)c(S(=O)(=O)NC3(C#N)CC3)cn3c(-c4nnc(C(F)F)s4)ncc23)CC1 [Example 52, N-(1-cyanocyclopropyl)-3-(5-(difluoromethyl)-1,3,4-thiadiazol-2-yl)-7-fluoro-8-(4-isobutyrylpiperazin-1-yl)imidazo[1,5-a]pyridine-6-sulfonamide]
3 | < 100 | 11.4 | 26.5 | < 100 | 9380 | 5000 to 30000 | CC(C)C(=O)N1CCN(c2cc(S(=O)(=O)NC34CC(C3)C4)cn3c(-c4nnc(C(F)F)s4)ncc23)CC1 [Example 54, N-(bicyclo[1.1.1]pentan-1-yl)-3-(5-(difluoromethyl)-1,3,4-thiadiazol-2-yl)-8-(4-isobutyrylpiperazin-1-yl)imidazo[1,5-a]pyridine-6-sulfonamide]
4 | < 100 | 0.86 | 22.9 | < 100 | 802 | 500 to 5000 | CC1(NS(=O)(=O)c2cc(N3CCC4(CC3)COC4)c3cnc(-c4nnc(C(F)F)s4)n3c2)COC1 [Example 56, 3-(5-(difluoromethyl)-1,3,4-thiadiazol-2-yl)-N-(3-methyloxetan-3-yl)-8-(2-oxa-7-azaspiro[3.5]nonan-7-yl)imidazo[1,5-a]pyridine-6-sulfonamide]
5 | < 100 | 21.2 | 1110 | > 1000 |  | > 30000 | [2H]C1([2H])CCC1([2H])NS(=O)(=O)c1cc(N2CCN(C(=O)C(C)C)CC2)c2cnc(-c3nnc(C(F)F)s3)n2c1 (stereo not shown) [Example 57, N-(cyclobutyl-1,2,2-d3)-3-(5-(difluoromethyl)-1,3,4-thiadiazol-2-yl)-8-(4-isobutyrylpiperazin-1-yl)imidazo[1,5-a]pyridine-6-sulfonamide]
6 | < 100 | 25.1 | 2870 | > 1000 |  | > 30000 | CC(C)C(=O)N1CCN(c2cc(S(=O)(=O)NC3(C)CCOC3)cn3c(-c4nnc(C(F)F)s4)ncc23)CC1 (stereo not shown) [Example 58, 3-(5-(difluoromethyl)-1,3,4-thiadiazol-2-yl)-8-(4-isobutyrylpiperazin-1-yl)-N-(3-methyltetrahydrofuran-3-yl)imidazo[1,5-a]pyridine-6-sulfonamide]
7 | < 100 | 7.02 | 122 | 100 to 500 | 6000 | 5000 to 30000 | CC1(O)CCN(c2cc(S(=O)(=O)NC3(C#N)CC3)cn3c(-c4nnc(C(F)F)s4)ncc23)CC1 [Example 65, N-(1-cyanocyclopropyl)-3-(5-(difluoromethyl)-1,3,4-thiadiazol-2-yl)-8-(4-hydroxy-4-methylpiperidin-1-yl)imidazo[1,5-a]pyridine-6-sulfonamide]
8 | < 100 | 20 | 9.05 | < 100 | 432 | < 500 | CC(C)C(=O)N1CCN(c2cc(S(=O)(=O)NC3CC3)cn3c(-c4nnc(C(F)F)s4)ncc23)CC1 [Example 69, N-cyclopropyl-3-(5-(difluoromethyl)-1,3,4-thiadiazol-2-yl)-8-(4-isobutyrylpiperazin-1-yl)imidazo[1,5-a]pyridine-6-sulfonamide]
9 | < 100 | 13.2 | 3.78 | < 100 | 370 | < 500 | C[C@@H]1CN(c2cc(S(=O)(=O)NC3(C#N)CC3)cn3c(-c4nnc(C(F)F)s4)ncc23)CCN1C(=O)C1CC1 [Example 75, (R)-N-(1-cyanocyclopropyl)-8-(4-(cyclopropanecarbonyl)-3-methylpiperazin-1-yl)-3-(5-(difluoromethyl)-1,3,4-thiadiazol-2-yl)imidazo[1,5-a]pyridine-6-sulfonamide]
10 | < 100 | 13.8 | 3.59 | < 100 | 450 | < 500 | CC1(C(=O)N2CCN(c3cc(S(=O)(=O)NC4(C#N)CC4)cn4c(-c5nnc(C(F)F)s5)ncc34)CC2)CC1 [Example 76, N-(1-cyanocyclopropyl)-3-(5-(difluoromethyl)-1,3,4-thiadiazol-2-yl)-8-(4-(1-methylcyclopropane-1-carbonyl)piperazin-1-yl)imidazo[1,5-a]pyridine-6-sulfonamide]
11 | < 100 | 7.59 | 7.34 | < 100 | 866 | 500 to 5000 | C[C@@H]1CN(c2cc(S(=O)(=O)NC3(C#N)CC3)cn3c(-c4nnc(C(F)F)s4)ncc23)C[C@H](C)N1C(=O)C1CC1 [Example 78, N-(1-cyanocyclopropyl)-8-((3R,5S)-4-(cyclopropanecarbonyl)-3,5-dimethylpiperazin-1-yl)-3-(5-(difluoromethyl)-1,3,4-thiadiazol-2-yl)imidazo[1,5-a]pyridine-6-sulfonamide]
12 | < 100 | 28.8 | 7.57 | < 100 | 764 | 500 to 5000 | C[C@@H]1CN(c2cc(S(=O)(=O)NC3(C#N)CC3)cn3c(-c4nnc(C(F)(F)F)s4)ncc23)CCN1C(=O)C1(C)CC1 [Example 80, (R)-N-(1-cyanocyclopropyl)-8-(3-methyl-4-(1-methylcyclopropane-1-carbonyl)piperazin-1-yl)-3-(5-(trifluoromethyl)-1,3,4-thiadiazol-2-yl)imidazo[1,5-a]pyridine-6-sulfonamide]
13 | < 100 | 11 | 6.85 | < 100 | 472 | < 500 | C[C@@H]1CN(c2cc(S(=O)(=O)NC3(C#N)CC3)cn3c(-c4nnc(C(F)F)s4)ncc23)CCN1C(=O)C(C)(C)C [Example 84, (R)-N-(1-cyanocyclopropyl)-3-(5-(difluoromethyl)-1,3,4-thiadiazol-2-yl)-8-(3-methyl-4-pivaloylpiperazin-1-yl)imidazo[1,5-a]pyridine-6-sulfonamide]
14 | < 100 | 9.55 | 23.4 | < 100 | 350 | < 500 | C[C@@H]1CN(c2cc(S(=O)(=O)NC3(C#N)CC3)cn3c(-c4nnc(C(F)F)s4)ncc23)CCN1C(=O)C(C)(C)F [Example 94, (R)-N-(1-cyanocyclopropyl)-3-(5-(difluoromethyl)-1,3,4-thiadiazol-2-yl)-8-(4-(2-fluoro-2-methylpropanoyl)-3-methylpiperazin-1-yl)imidazo[1,5-a]pyridine-6-sulfonamide]
15 | < 100 | 6.51 | 26.8 | < 100 | 372 | < 500 | CC(C)C(=O)N1CCN(c2cc(S(=O)(=O)NC3(C)CC3)cn3c(-c4nnc(C(F)F)s4)nnc23)CC1 [Example 99, 3-(5-(difluoromethyl)-1,3,4-thiadiazol-2-yl)-8-(4-isobutyrylpiperazin-1-yl)-N-(1-methylcyclopropyl)-[1,2,4]triazolo[4,3-a]pyridine-6-sulfonamide]
16 | < 100 | 1.99 | 4.96 | < 100 | 448 | < 500 | CC(C)C(=O)N1CCN(c2cc(S(=O)(=O)NC3(CF)CC3)cn3c(-c4nnc(C(F)F)s4)nnc23)CC1 [Example 100, 3-(5-(difluoromethyl)-1,3,4-thiadiazol-2-yl)-N-(1-(fluoromethyl)cyclopropyl)-8-(4-isobutyrylpiperazin-1-yl)-[1,2,4]triazolo[4,3-a]pyridine-6-sulfonamide]
17 | < 100 | 2.54 | 32.1 | < 100 | 5000 | 5000 to 30000 | C#CC1(NS(=O)(=O)c2cc(N3CCN(C(=O)C(C)C)CC3)c3nnc(-c4nnc(C(F)F)s4)n3c2)CC1 [Example 102, 3-(5-(difluoromethyl)-1,3,4-thiadiazol-2-yl)-N-(1-ethynylcyclopropyl)-8-(4-isobutyrylpiperazin-1-yl)-[1,2,4]triazolo[4,3-a]pyridine-6-sulfonamide]
18 | < 100 | 1.5 | 22.6 | < 100 | 520 | 500 to 5000 | O=S(=O)(NC1(CF)CC1)c1cc(N2CCC(CO)CC2)c2nnc(-c3nnc(C(F)F)s3)n2c1 [Example 108, 3-(5-(difluoromethyl)-1,3,4-thiadiazol-2-yl)-N-(1-(fluoromethyl)cyclopropyl)-8-(4-(hydroxymethyl)piperidin-1-yl)-[1,2,4]triazolo[4,3-a]pyridine-6-sulfonamide]
